Data reported in patent publication US9034825B2, “Treatment of myocardial injury with humanin analogs” (Albert Einstein College of Medicine of Yeshiva University, priority 2007, dated 2015).

Experiments:
[1] = target: IGF-1 (Homo sapiens, UniProt P05019); assay: Western ligand blots with 125I-labeled IGF-1; assay type: binding; conditions: data not shown
[2] = system: phospho STAT-3 in hypothalamus; assay: Western blot of hypothalamic STAT-3 phosphorylation after ICV infusion; assay type: in vivo, rat; conditions: within an hour of ICV HN infusion
Experimental: (§1) The indicated tissues were homogenized in 20 mM MOPS, 2 mM EGTA, 5 mM EDTA, 30 mM sodium fluoride, 40 mM beta-glycerophosphate, 10 mM sodium pyrophosphate, 2 mM orthovanadate, 0.5% NP-40 and complete protease inhibitor cocktail (Roche, Indianapolis, Ind., USA) and centrifuged at 12,000 g for 15 min and the supernatant was harvested while carefully avoiding the lipid layer on top. Protein concentration was measured with a BCA protein quantification kit (Pierce, Rockford, Ill., USA). Protein extracts were separated on 4-12% NuPAGE (Invitrogen, Carlsbad, Calif., USA) gels and were blotted onto Immobilon FL PVDF (Millipore, Billerica, Mass., USA). […] After three washes in TBS-T and a final wash in TBS the blots were scanned using the LI-COR Odyssey (LI-COR, Lincoln, Nebr., USA) and quantified using Odyssey 2.0 software based on direct fluorescence measurement.
(§2) For acute signaling studies, rats were injected ICV with either aCSF, 20 μg of HN or F6A (dissolved in aCSF) over 5 min, and sacrificed 30 min later. […] Samples were also obtained from these tissues at the end of the clamp and western blot analysis was performed as described previously (Muzumdar et al. 2003) The blots were scanned using the LI-COR Odyssey (LI-COR, Lincoln, Nebr., USA) and quantified using Odyssey 2.0 software based on direct fluorescence measurement. […]

[3] = system: signaling kinases in hypothalamus and liver; assay: Western blot of other signaling in hypothalamus and liver after ICV infusion; assay type: in vivo, rat; conditions: ICV HN
Experimental: as §1, §2

[4] = system: Sprague-Dawley rats; assay: Intravenous infusion of humanin or analogs during hyperinsulinemic clamp; assay type: in vivo, rat; conditions: IV 0.0375 mg/kg/hr, clamp
[5] = system: primary hepatocytes; assay: Glucose production of primary isolated hepatocytes; assay type: cell-based; conditions: rat hepatocytes explant cultures
Experimental: Single-cell suspensions of hepatocytes were obtained from perfusions of Sprague-Dawley rats using the procedure of Berry and Friend (1969) and the perfusion mixture of Leffert et al (1979). Hepatocyte glucose production was estimated after a 24 hr treatment with HN, F6A and saline as described before (Berg et al. 2001). In a separate set of experiment, hepatocytes were lysed, and protein extracted in RIPA lysis buffer at 30, 60 and 360 min post treatment with FIN, F6A and saline. The cell lysates were then subject to western blotting for Phospho-STAT3 (Tyr705), total-STAT3, Phospho-AKT (Ser473), and total-AKT expression (antibodies purchased from Cell Signaling, #9131, #9132, #9271, #9272).

Chain of IGF-1 (P05019 49-118): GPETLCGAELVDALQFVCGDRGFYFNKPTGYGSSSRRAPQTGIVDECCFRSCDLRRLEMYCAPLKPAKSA

binding to 125I-labeled IGF-1 [1] | Compound | increase in STAT-3 phosphorylation in hypothalamic tissues [2] [fold] | liver pAKT, PGC-1b, FAS, p38, CREB, ACC vs control groups [3] | phosphorylation in other signaling kinases in the hypothalamus including AKT [3] | peripheral insulin action [4] | glucose production rates with and without HN [5]
bound equally | IGFBP-3: non glycosylated hIGFBP-3 (IGF binding protein-3), provided by Celtrix |  |  |  |  | 
 | CC[C@H](C)[C@H](NC(=O)[C@H](CCC(=O)O)NC(=O)[C@H](CO)NC(=O)[C@@H](NC(=O)[C@H](CC(C)C)NC(=O)[C@H](CC(C)C)NC(=O)[C@H](CC(C)C)NC(=O)[C@H](CC(C)C)NC(=O)[C@H](CS)NC(=O)[C@H](CO)NC(=O)[C@H](Cc1ccccc1)NC(=O)CNC(=O)[C@H](CCCNC(=N)N)NC(=O)[C@@H]1CCCN1C(=O)[C@H](C)NC(=O)[C@@H](N)CCSC)[C@@H](C)O)C(=O)N[C@@H](CC(=O)O)C(=O)N[C@@H](CC(C)C)C(=O)N1CCC[C@H]1C(=O)N[C@H](C(=O)N[C@@H](CCCCN)C(=O)N[C@@H](CCCNC(=N)N)C(=O)N[C@@H](CCCNC(=N)N)C(=O)N[C@@H](C)C(=O)O)C(C)C [Humanin, maprgfscll lltseidlpv krra] | 10 | no significant differences | Unchanged levels of phosphorylation | Neither HN, nor the non-BP3-binding F6AHN (at doses of 0.0375 mg/kg/hr) altered peripheral insulin action | not different
